Laboratory results as given in paper PMC8281983 (Journal of the American Chemical Society, 2021).

Biological target: T1, BRCA1-associated ATM activator 1 (BRAT1) (Homo sapiens, UniProt Q6PJG6)
T1 sequence (Q6PJG6 1-821): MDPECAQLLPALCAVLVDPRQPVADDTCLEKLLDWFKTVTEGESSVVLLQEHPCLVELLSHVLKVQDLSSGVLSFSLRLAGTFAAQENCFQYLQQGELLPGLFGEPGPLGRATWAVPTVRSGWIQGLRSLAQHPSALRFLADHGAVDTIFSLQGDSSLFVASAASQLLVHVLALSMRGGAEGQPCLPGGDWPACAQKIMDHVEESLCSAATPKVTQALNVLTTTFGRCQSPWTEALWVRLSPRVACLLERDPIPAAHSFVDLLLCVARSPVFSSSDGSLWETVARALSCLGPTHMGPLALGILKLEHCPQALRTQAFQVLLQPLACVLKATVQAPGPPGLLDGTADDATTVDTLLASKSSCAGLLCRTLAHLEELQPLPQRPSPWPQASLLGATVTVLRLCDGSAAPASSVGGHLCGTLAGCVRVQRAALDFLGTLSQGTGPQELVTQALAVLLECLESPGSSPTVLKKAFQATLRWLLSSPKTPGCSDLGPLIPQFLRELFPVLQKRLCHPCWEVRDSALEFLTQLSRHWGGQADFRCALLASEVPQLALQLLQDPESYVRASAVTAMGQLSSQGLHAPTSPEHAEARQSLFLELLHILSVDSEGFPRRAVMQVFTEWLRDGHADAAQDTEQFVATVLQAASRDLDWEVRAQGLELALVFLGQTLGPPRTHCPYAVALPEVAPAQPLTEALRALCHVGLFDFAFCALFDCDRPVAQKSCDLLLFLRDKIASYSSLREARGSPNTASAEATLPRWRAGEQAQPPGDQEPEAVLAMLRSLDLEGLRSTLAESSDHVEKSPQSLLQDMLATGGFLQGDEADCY
Format: cell-based

EC50: 2.7 µM
SMILES: C=C(C)C1CCC(=C)C2C3=C(C[C@@](C)(O)C3=O)C(=O)C(C)=C[C@@H]12 (stereo partly shown) [1d, curcusone D]
